Data as given in patent US20120016019A1, “PHARMACEUTICAL COMPOSITION FOR TREATING OR PREVENTING CANCER” (priority 2010, published 2012).
Several values for one entry are separate records, joined by “and”; a condition that tells them apart may be missing. Equal values may be shown once. Read-outs that look alike come from different tables or passages of the source.

How the values were obtained:
Type in all cases: cell-based
Saos-2 = test: Cell counts, Saos-2
Experimental: Cancer cell lines HCC 1419, MCF-7, MDA-MB-468, SKBR3, PC3, HT1299, Saos-2, C-6, AsPc, MDA-MB-231, RKO, HeLa and TT, and normal cell lines HME 50 HT, BJ and CCD-1074sk were tested for changes in metabolism (XTT assay) and cell death (cell counts).
(§4) Cells were plated into 48-well Corning CellBind™ plates at densities of 20,000 cells for normal cells and 10,000˜20,000 cells for cancer cells. 24 to 48 h after plating, cells were treated with the composition according to the invention at concentrations of 4.5e-2M. The first time point treated with the composition of the invention is 0 h. At 3 days after the first treatment with the composition of the invention, medium was changed and the composition of the invention at the same concentrations were added to the cultured cells.
Cells were harvested using Trypsin-EDTA at the designated time points. […] Two 48-well plates were used per cell line, and they were measured at 0 h, 12 h, 24 h, 48 h, 4 d and 7 d, respectively.
In the 1st plate, cells were treated with the composition according to the invention and medium was changed at 0 h and 3 d. […] As a result, LC-50 curves were generated in the 1st week.

HME 50 HT = conditions: for cell counts: single count
Experimental: (§1) As a result, LC-50 curves were generated in the 1st week.
(§2) In the 2nd plate, 7 d of the 1st week (LC-50) is the same as 0 h of the 2nd week (recovery).
(§3) At 0 h of the 2nd week, medium was exchanged with untreated medium for the remainder of the experiment. The untreated controls were not measured in the 2nd week (recovery) due to overconfluence by the end of the 1st week. As a result, Recovery curves were generated in the 2nd week.
Human Mammary Epithelial (HME) cells were derived from adjacent normal tissue.

BJ = conditions: for cell counts, Mean value / cell counts: BJ; for cell counts: single count
Experimental: as §1, §2, §3
(15) BJ—Normal Fibroblasts BJ cells were derived from normal foreskin of a newborn, and have a long lifespan in comparison with other normal human fibroblast cells. Although they have the capacity to proliferate to a maximum of 72 population doublings before the onset of senescence, they are telomerase negative.

HT 1299 = test: Cell counts, HT 1299; conditions: for cell counts: single wells
Experimental: as §1, §2
At 0 h of the 2nd week, medium was exchanged with untreated medium for the remainder of the experiment. […] As a result, Recovery curves were generated in the 2nd week.
HT 1299 is a non-small cell lung cancer. The cells have a homozygous partial deletion of the p53 protein, and lack expression of p53 protein.

MDA-MB-231 = test: Cell counts, MDA-MB-231
Experimental: as §1, §2, §3

TT = test: Viability by trypan blue staining, TT; conditions: for viability (%) calculated from the cell counts: single value
Experimental: as §4
(§5) Cells were harvested using Trypsin-EDTA at the designated time points. When total cells for each well were counted with a Beckman-Coulter Z1 Particle Characterization Unit, the vertical axis represents 1/20 of cell number in the Figures attached to the specification, while when counted with a Beckman-Coulter Vi-Cell, the vertical axis represents cell number in the Figures. Two 48-well plates were used per cell line, and they were measured at 0 h, 12 h, 24 h, 48 h, 4 d and 7 d, respectively.
(§6) The viability was determined by using the trypan blue staining in the well of cell counting.

in vitro = conditions: human
Experimental: as §4, §5, §6

CCD-1074sk = test: in vitro; conditions: human, 220 nM
Experimental: as §4, §5, §6

[1] = HME 50 HT, 1st week (LC50), 0 h
[2] = HME 50 HT, 1st week (LC50), 12 h
[3] = HME 50 HT, 1st week (LC50), 24 h
[4] = HME 50 HT, 1st week (LC50), 48 h
[5] = HME 50 HT, 1st week (LC50), 4 d
[6] = HME 50 HT, 1st week (LC50), 7 d
[7] = viability (%) calculated from the cell counts

CC(=O)O[C@H]1C(=O)[C@@]2(C)[C@H]([C@H](OC(=O)c3ccccc3)[C@]3(O)C[C@H](OC(=O)[C@H](O)[C@@H](NC(=O)c4ccccc4)c4ccccc4)C(C)=C1C3(C)C)[C@]1(OC(C)=O)CO[C@@H]1C[C@@H]2O [Taxol]
process of cell death (microscopy) (Saos-2): cell membranes were ruptured by toxicity of Taxol, and then nuclei of cells changed into black
cell counts (Saos-2; 1st week (LC50), 0 h): 2143 and 2221 and 2135
cell counts, Mean value (Saos-2; 1st week (LC50), 0 h): 2166
cell counts (Saos-2; 1st week (LC50), 12 h): 1756 and 1790 and 1705
cell counts, Mean value (Saos-2; 1st week (LC50), 12 h): 1750
cell counts (Saos-2; 1st week (LC50), 24 h): 1529 and 1376 and 1452
cell counts, Mean value (Saos-2; 1st week (LC50), 24 h): 1452
cell counts (Saos-2; 1st week (LC50), 48 h): 857 and 822 and 776
cell counts, Mean value (Saos-2; 1st week (LC50), 48 h): 818
cell counts, Mean value (Saos-2; 1st week (LC50), 4 d): 420
cell counts, Mean value (Saos-2; 2nd week (recovery), 0 h): 609
cell counts, Mean value (Saos-2; 2nd week (recovery), 24 h): 183
cell counts (Saos-2; 2nd week (recovery), 48 h): 312 and 249 and 165
cell counts, Mean value (Saos-2; 2nd week (recovery), 48 h): 242
cell counts (Saos-2; 2nd week (recovery), 4 d): 416 and 589 and 602
cell counts, Mean value (Saos-2; 2nd week (recovery), 4 d): 536
cell counts, Mean value (Saos-2; 2nd week (recovery), 7 d): 635
number of normal cells (HME 50 HT): the number of cells did not increase, and was merely maintained for two weeks
cell counts, Mean value (HME 50 HT; [1]): 14667
cell counts (HME 50 HT; [1]): 12000 and 11000 and 21000
cell counts, Mean value (HME 50 HT; [2]): 16667
cell counts (HME 50 HT; [2]): 14000 and 23000 and 13000
cell counts, Mean value (HME 50 HT; [3]): 11333
cell counts (HME 50 HT; [3]): 14000 and 11000 and 9000
cell counts, Mean value (HME 50 HT; [4]): 15667
cell counts (HME 50 HT; [4]): 18000 and 11000
cell counts, Mean value (HME 50 HT; [5]): 9000
cell counts (HME 50 HT; [5]): 9000
cell counts, Mean value (HME 50 HT; [6]): 16667
cell counts (HME 50 HT; [6]): 17000 and 19000 and 14000
cell counts, Mean value (HME 50 HT; HME, 2nd week (recovery), 0 h): 16333
cell counts (HME 50 HT; HME, 2nd week (recovery), 0 h): 19000 and 17000 and 13000
cell counts, Mean value (HME 50 HT; HME, 2nd week (recovery), 12 h): 13667
cell counts (HME 50 HT; HME, 2nd week (recovery), 12 h): 13000 and 15000
cell counts, Mean value (HME 50 HT; HME, 2nd week (recovery), 24 h): 12667
cell counts (HME 50 HT; HME, 2nd week (recovery), 24 h): 12000 and 15000 and 11000
cell counts, Mean value (HME 50 HT; HME, 2nd week (recovery), 48 h): 17000
cell counts (HME 50 HT; HME, 2nd week (recovery), 48 h): 18000 and 16000 and 17000
cell counts, Mean value (HME 50 HT; HME, 2nd week (recovery), 4 d): 16333
cell counts (HME 50 HT; HME, 2nd week (recovery), 4 d): 18000 and 19000 and 12000
cell counts, Mean value (HME 50 HT; HME, 2nd week (recovery), 7 d): 16000
cell counts (HME 50 HT; HME, 2nd week (recovery), 7 d): 14000 and 19000 and 15000
appearance of normal cells (microscopy) (BJ): fully destroyed
proliferation of normal cells (BJ): decreased due to stress by toxicity of Taxol
cell counts, Mean value (BJ; 1st week (LC50), 0 h): 16333
cell counts (BJ; 1st week (LC50), 0 h): 14000 and 17000 and 18000
cell counts, Mean value (BJ; 1st week (LC50), 12 h): 11000
cell counts (BJ; 1st week (LC50), 12 h): 12000 and 9000
cell counts, Mean value (BJ; 1st week (LC50), 24 h): 12667
cell counts (BJ; 1st week (LC50), 24 h): 10000 and 17000 and 11000
cell counts, Mean value (BJ; 1st week (LC50), 48 h): 11667
cell counts (BJ; 1st week (LC50), 48 h): 14000 and 10000 and 11000
cell counts, Mean value (BJ; 1st week (LC50), 4 d): 6333
cell counts (BJ; 1st week (LC50), 4 d): 9000 and 5000
cell counts, Mean value (BJ; 1st week (LC50), 7 d): 6667
cell counts, Mean value (BJ; 2nd week (recovery), 0 h): 19
cell counts, Mean value (BJ; 2nd week (recovery), 24 h): 8
cell counts (BJ; 2nd week (recovery), 24 h): 7 and 9
cell counts, Mean value (BJ; 2nd week (recovery), 48 h): 13
cell counts (BJ; 2nd week (recovery), 48 h): 8 and 14 and 16
cell counts, Mean value (BJ; 2nd week (recovery), 4 d): 11
cell counts, Mean value (BJ; 2nd week (recovery), 7 d): 28
cell counts (BJ; 2nd week (recovery), 7 d): 35 and 29 and 19
process of cell death (microscopy) (HT 1299): cell membranes were ruptured by toxicity of Taxol, and then nuclei of cells changed into black
cell counts, Mean value (HT 1299; 1st week (LC50), 0 h): 3737
cell counts, Mean value (HT 1299; 1st week (LC50), 12 h): 3705
cell counts (HT 1299; 1st week (LC50), 12 h): 2680 and 3085 and 5350
cell counts, Mean value (HT 1299; 1st week (LC50), 24 h): 3252
cell counts (HT 1299; 1st week (LC50), 24 h): 2810 and 4255 and 2690
cell counts, Mean value (HT 1299; 1st week (LC50), 48 h): 1464
cell counts (HT 1299; 1st week (LC50), 48 h): 1382 and 1526 and 1484
cell counts (HT 1299; 1st week (LC50), 4 d): 488 and 536 and 712
cell counts, Mean value (HT 1299; 1st week (LC50), 7 d): 782
cell counts (HT 1299; 1st week (LC50), 7 d): 982 and 736
cell counts, Mean value (HT 1299; 2nd week (recovery), 0 h): 919
cell counts (HT 1299; 2nd week (recovery), 0 h): 1193 and 789 and 776
cell counts, Mean value (HT 1299; 2nd week (recovery), 24 h): 227
cell counts, Mean value (HT 1299; 2nd week (recovery), 48 h): 432
cell counts (HT 1299; 2nd week (recovery), 48 h): 410 and 499 and 386
cell counts, Mean value (HT 1299; 2nd week (recovery), 4 d): 446
cell counts (HT 1299; 2nd week (recovery), 4 d): 322 and 545 and 470
cell counts, Mean value (HT 1299; 2nd week (recovery), 7 d): 118
cell counts (HT 1299; 2nd week (recovery), 7 d): 104 and 144 and 107
cell counts (MDA-MB-231; 1st week (LC50), 0 h): 47000 and 42000 and 53000
cell counts, Mean value (MDA-MB-231; 1st week (LC50), 0 h): 47333
cell counts (MDA-MB-231; 1st week (LC50), 24 h): 32000 and 39000 and 22000
cell counts, Mean value (MDA-MB-231; 1st week (LC50), 24 h): 31000
cell counts (MDA-MB-231; 1st week (LC50), 48 h): 13000 and 16000 and 23000
cell counts, Mean value (MDA-MB-231; 1st week (LC50), 48 h): 17333
cell counts (MDA-MB-231; 1st week (LC50), 4 d): 19500 and 24000 and 26500
cell counts, Mean value (MDA-MB-231; 1st week (LC50), 4 d): 23333
cell counts, Mean value (MDA-MB-231; 1st week (LC50), 7 d): 9667
growth of the cell population (MDA-MB-231; 2nd week (recovery)): begins to grow and shows the sign of recovering
cell counts (MDA-MB-231; 2nd week (recovery), 0 h): 12500 and 17500 and 22000
cell counts, Mean value (MDA-MB-231; 2nd week (recovery), 0 h): 17333
cell counts (MDA-MB-231; 2nd week (recovery), 24 h): 16000 and 32000 and 24000
cell counts, Mean value (MDA-MB-231; 2nd week (recovery), 24 h): 24000
cell counts, Mean value (MDA-MB-231; 2nd week (recovery), 48 h): 24500
cell counts, Mean value (MDA-MB-231; 2nd week (recovery), 4 d): 22167
cell counts, Mean value (MDA-MB-231; 2nd week (recovery), 7 d): 32000
viability (%) (TT; 1st week (LC50), 0 h): 79.5% and 80.8% and 78.4%
viability (%), Mean value (TT; 1st week (LC50), 0 h): 79.6%
viability (%) (TT; 1st week (LC50), 24 h): 76.5% and 64.7% and 72.7%
viability (%), Mean value (TT; 1st week (LC50), 24 h): 71.3%
viability (%) (TT; 1st week (LC50), 48 h): 72.5% and 72% and 76.9%
viability (%), Mean value (TT; 1st week (LC50), 48 h): 73.8%
viability (%) (TT; 1st week (LC50), 4 d): 70.1%
viability (%), Mean value (TT; 1st week (LC50), 4 d): 67.8%
viability (%) (TT; 1st week (LC50), 7 d): 75% and 37.5%
viability (%), Mean value (TT; 1st week (LC50), 7 d): 59.7%
viability (%), Mean value (TT; 2nd week (recovery), 0 h, trypan blue, mean value): 65%
viability (%) calculated from the cell counts (TT; 2nd week (recovery), 0 h, trypan blue): 70% and 75% and 50%
viability (%), Mean value (TT; 2nd week (recovery), 24 h, trypan blue, mean value): 41.1%
viability (%), Mean value (TT; 2nd week (recovery), 48 h, trypan blue, mean value): 35.1%
viability (%), Mean value (TT; 2nd week (recovery), 4 d, trypan blue, mean value): 37.6%
viability (%), Mean value (TT; 2nd week (recovery), 7 d, trypan blue, mean value): 33.5%
viability (%) calculated from the cell counts (TT; 2nd week (recovery), 7 d, trypan blue): 25% and 42.3%
viability at 0 h, 2.2e-07 M (in vitro; [7]): 70%
viability at 24 h, 2.2e-07 M (in vitro; [7]): 71%
viability at 4 d, 2.2e-07 M (in vitro; [7]): 43%
viability at 0 h, 2.2e-07 M (in vitro; viability (%), Mean value): 73%
viability at 24 h, 2.2e-07 M (in vitro; viability (%), Mean value): 80%
viability at 4 d, 2.2e-07 M (in vitro; viability (%), Mean value): 38%
viability (%), Mean value (CCD-1074sk; 0 h): 79%
viability (%) calculated from the cell counts (CCD-1074sk; 48 h): 83%
viability (%) calculated from the cell counts (CCD-1074sk; 4 d): 33%
